# Assay results as given in US11952611B2, “Methods and systems for detection of antibiotic resistance” (Laboratory Corporation of America Holdings, priority 2017, dated 2024).
# How the values were obtained:
# Assay type in all cases: cell-based, Staphylococcus aureus
# [1] = test system: 12600 - MSSA; experiment: Table 6, MSSA alone
# Method: (§1) Bacterial strains were serially diluted and transferred to a 96-well plate at 135 μL per well. 15 μL of cefoxitin was added to the wells to reach a final concentration of 1.8 μg/mL. The plate was then sealed and incubated at 37° C. for 2 hours or 3 hours. 10 μL of recombinant phage (1.6×10^8 pfu/mL) was added to each well. The plate was then re-sealed and incubated at 37° C. for an additional 1 or 2 hours. A master mix was made containing 15 μL 5× lysis buffer, 50 μL luciferase assay buffer, and 1 μL luciferase substrate per well. 65 μL of master mix was added to each well. Luminescence from the reactions was read on a GLOMAX® Navigator and relative luminal units (RLU) for each reaction were plotted and analyzed. RLU values three times greater than an established background RLU level for LB (>750 RLU) were considered positive. The results, shown in Table 6, indicate that samples with MRSA (38 CFU) can be distinguished from samples containing MSSA (up to 5088 CFU) using a 3-hour antibiotic/1-hour phage incubation protocol. Positive results are in bold. In Table 6, CFU values (318 CFU and 156 CFU) were experimentally validated by direct plating.
# [2] = test system: BAA-1720 MRSA; experiment: MRSA detection from BD BBL CultureSwabs (Table 4)
# Method: Bacterial strains were serially diluted and BD BBL CultureSwabs™ were inoculated with 50 ul of LB with approximately the target number of cells of 1000 CFU, 500 CFU, 250 CFU, 125 CFU, 63 CFU, 31 CFU, 16 CFU, or 8 CFU. Swabs were eluted with 1 mL modified Amies solution (included with commercially available Copan e-Swabs™). 135 μL of the eluted solution was added to each well. 15 μL of cefoxitin was added to the wells to reach a final concentration of 1.8 μg/mL, 3.6 μg/mL, or 5.4 μg/mL. The plate was then sealed and incubated at 37° C. for 2 hours. 10 μL of recombinant phage (1.6×10^8 pfu/mL) was added to each well. The plate was then re-sealed and incubated at 37° C. for an additional 2 hours. A master mix was made containing 15 μL 5× lysis buffer, 50 μL luciferase assay buffer, and 1 μL luciferase substrate per well. 65 μL of master mix was added to each well. Luminescence from the reactions were read on a GLOMAX® Navigator and relative luminal units (RLU) for each reaction were plotted and analyzed. RLU values three times greater than an established background RLU level for modified Amies solution (>1500 RLU) were considered positive. The results, shown in Table 4, indicate that a positive MRSA determination was made with 23 CFU in a well, originating from approximately 125 CFU on a swab when incubated with the previously established cut-off of 1.8 μg/mL. Positive results are highlighted in grey.
# [3] = test system: BAA-1720 - MRSA; experiment: Table 6, MRSA alone; conditions: MSSA detected CFU 0, MRSA 38
# Method: as §1
# [4] = test system: MRSA; experiment: Optimization of cefoxitin concentration (Table 2), MRSA strains
# Method: Bacterial strains were serially diluted to approximately 1×10^3 CFU/mL and transferred to a 96-well plate at 135 μL per well. 15 μL of cefoxitin was added to the wells to reach a final concentration of 1.4 μg/mL, 1.6 μg/mL, 1.8 μg/mL or 2.0 μg/mL. The plate was then sealed and incubated at 37° C. for 2 hours. 10 μL of recombinant phage (1.6×10^8 pfu/mL) was added to each well. The plate was then re-sealed and incubated at 37° C. for an additional 2 hours. A master mix was made containing 15 μL 5× lysis buffer, 50 μL luciferase assay buffer, and 1 μL luciferase substrate per well. 65 μL of master mix was added to each well. Luminescence from the reactions were read on a GLOMAX® Navigator and relative luminal units (RLU) for each reaction were plotted and analyzed. RLU values three times greater than an established background RLU level for LB (>750 RLU) were considered positive. The results, shown in Table 2, indicate that the recombinant phage are capable of detecting these bacterial strains. […] Positive results are in bold.
# [5] = MSSA detected CFU 10176, MRSA 0
# [6] = target swab CFU 8, detected CFU 3
# [7] = target swab CFU 16, detected CFU 1
# [8] = target swab CFU 31, detected CFU 4
# [9] = target swab CFU 63, detected CFU 5
# [10] = target swab CFU 125, detected CFU 23
# [11] = target swab CFU 250, detected CFU 28
# [12] = target swab CFU 500, detected CFU 31
# [13] = target swab CFU 1000, detected CFU 76
# [14] = strain AR0470 MRSA, detected CFU 314
# [15] = strain BAA-2313 MRSA, detected CFU 192
smiles,measurement,setting,value
"CO[C@@]1(NC(=O)Cc2cccs2)C(=O)N2C(C(=O)O)=C(COC(N)=O)CS[C@@H]21 [Cefoxitin, cefoxitin]",2 HR AB + 2 HR Phage 1.8 ug/mL,"[1]; MSSA detected CFU 156, MRSA 0",423 RLU
same,3 HR AB + 1 HR Phage 1.8 ug/mL,"[1]; MSSA detected CFU 156, MRSA 0",196 RLU
same,2 HR AB + 2 HR Phage 1.8 ug/mL,"[1]; MSSA detected CFU 318, MRSA 0",608 RLU
same,3 HR AB + 1 HR Phage 1.8 ug/mL,"[1]; MSSA detected CFU 318, MRSA 0",231 RLU
same,2 HR AB + 2 HR Phage 1.8 ug/mL,"[1]; MSSA detected CFU 636, MRSA 0",956 RLU
same,3 HR AB + 1 HR Phage 1.8 ug/mL,"[1]; MSSA detected CFU 636, MRSA 0",275 RLU
same,2 HR AB + 2 HR Phage 1.8 ug/mL,"[1]; MSSA detected CFU 1272, MRSA 0",1685 RLU
same,3 HR AB + 1 HR Phage 1.8 ug/mL,"[1]; MSSA detected CFU 1272, MRSA 0",321 RLU
same,2 HR AB + 2 HR Phage 1.8 ug/mL,"[1]; MSSA detected CFU 2544, MRSA 0",4715 RLU
same,3 HR AB + 1 HR Phage 1.8 ug/mL,"[1]; MSSA detected CFU 2544, MRSA 0",621 RLU
same,2 HR AB + 2 HR Phage 1.8 ug/mL,"[1]; MSSA detected CFU 5088, MRSA 0",8583 RLU
same,3 HR AB + 1 HR Phage 1.8 ug/mL,"[1]; MSSA detected CFU 5088, MRSA 0",901 RLU
same,2 HR AB + 2 HR Phage 1.8 ug/mL,[1]; [5],16340 RLU
same,3 HR AB + 1 HR Phage 1.8 ug/mL,[1]; [5],1098 RLU
same,Cefoxitin (RLU) 1.8 ug/mL,[2]; [6],615 RLU
same,Cefoxitin (RLU) 3.6 ug/mL,[2]; [6],513 RLU
same,Cefoxitin (RLU) 5.4 ug/mL,[2]; [6],789 RLU
same,Cefoxitin (RLU) 1.8 ug/mL,[2]; [7],1711 RLU
same,Cefoxitin (RLU) 3.6 ug/mL,[2]; [7],1623 RLU
same,Cefoxitin (RLU) 5.4 ug/mL,[2]; [7],1172 RLU
same,Cefoxitin (RLU) 1.8 ug/mL,[2]; [8],3572 RLU
same,Cefoxitin (RLU) 3.6 ug/mL,[2]; [8],1469 RLU
same,Cefoxitin (RLU) 5.4 ug/mL,[2]; [8],1438 RLU
same,Cefoxitin (RLU) 1.8 ug/mL,[2]; [9],900 RLU
same,Cefoxitin (RLU) 3.6 ug/mL,[2]; [9],1068 RLU
same,Cefoxitin (RLU) 5.4 ug/mL,[2]; [9],948 RLU
same,Cefoxitin (RLU) 1.8 ug/mL,[2]; [10],3630 RLU
same,Cefoxitin (RLU) 3.6 ug/mL,[2]; [10],4720 RLU
same,Cefoxitin (RLU) 5.4 ug/mL,[2]; [10],4597 RLU
same,Cefoxitin (RLU) 1.8 ug/mL,[2]; [11],6254 RLU
same,Cefoxitin (RLU) 3.6 ug/mL,[2]; [11],3843 RLU
same,Cefoxitin (RLU) 5.4 ug/mL,[2]; [11],3381 RLU
same,Cefoxitin (RLU) 1.8 ug/mL,[2]; [12],7571 RLU
same,Cefoxitin (RLU) 3.6 ug/mL,[2]; [12],7693 RLU
same,Cefoxitin (RLU) 5.4 ug/mL,[2]; [12],5263 RLU
same,Cefoxitin (RLU) 1.8 ug/mL,[2]; [13],13210 RLU
same,Cefoxitin (RLU) 3.6 ug/mL,[2]; [13],7193 RLU
same,Cefoxitin (RLU) 5.4 ug/mL,[2]; [13],6922 RLU
same,2 HR AB + 2 HR Phage 1.8 ug/mL,[3],4218 RLU
same,3 HR AB + 1 HR Phage 1.8 ug/mL,[3],3136 RLU
same,effect on positive signal,"[4]; 1.8 ug/mL, most of the tested MRSA strains",produced a positive signal
same,Cefoxitin Concentration 1.4 ug/mL,"[4]; strain AR0461 MRSA, detected CFU 140",9488 RLU
same,Cefoxitin Concentration 2 ug/mL,"[4]; strain AR0467 MRSA, detected CFU 198",6615 RLU
same,Cefoxitin Concentration 1.8 ug/mL,"[4]; strain AR0469 MRSA, detected CFU 473",13490 RLU
same,Cefoxitin Concentration 1.6 ug/mL,[4]; [14],2481 RLU
same,Cefoxitin Concentration 1.8 ug/mL,[4]; [14],2046 RLU
same,Cefoxitin Concentration 1.4 ug/mL,[4]; [15],8601 RLU
same,Cefoxitin Concentration 1.6 ug/mL,[4]; [15],5620 RLU
same,Cefoxitin Concentration 1.8 ug/mL,[4]; [15],3239 RLU
same,Cefoxitin Concentration 2 ug/mL,[4]; [15],2385 RLU
